A word on the IC50: it is the concentration at which inhibition is half-maximal.

The test system of one assay is HL-60. Put plainly: Antiproliferative activity against human HL60 cells by MTS assay. Format: functional, cell-based. On the technique in general: Tetrazolium assays rely on reduction of a dye to a coloured formazan, in cell work by metabolically active cells.
Compound `Cc1n(CC=C(c2cc3ccccc3o2)c2cc3ccccc3o2)c2ccccc2[n+]1CC(=O)c1ccc2ccccc2c1` showed an IC50 of 1.58 µM.
In turn, `Cc1n(CC=C(c2cc3ccccc3o2)c2cc3ccccc3o2)c2ccccc2[n+]1CC(=O)c1ccc(Br)cc1` yielded an IC50 of 2.43 µM.
The compound `Cc1n(CC=C(c2cc3ccccc3o2)c2cc3ccccc3o2)c2ccccc2[n+]1CC(=O)c1ccc(-c2ccccc2)cc1` had a concentration for half-maximal inhibition (IC50) of 1.41 µM.
For the compound `COc1ccc(C(=O)C[n+]2c(C)n(CC=C(c3cc4ccccc4o3)c3cc4ccccc4o3)c3ccccc32)cc1`, it took 1.11 µM to reach half-maximal inhibition (IC50).
On the same count and under the same terms, in the case of `Cc1cc2c(cc1C)[n+](CC(=O)c1ccc(Br)cc1)cn2CC=C(c1cc2ccccc2o1)c1cc2ccccc2o1` it was 6.27 µM.
Still for that read-out and setting: in the case of `COc1ccc(C(=O)C[n+]2cn(CC=C(c3cc4ccccc4o3)c3cc4ccccc4o3)c3ccccc32)cc1` it was 1.19 µM.
Same read-out and setting: the figure for `O=C(C[n+]1ccn(CC=C(c2cc3ccccc3o2)c2cc3ccccc3o2)c1)c1ccc(Br)cc1` is 8.4 µM.
`O=C(C[n+]1ccn(CC=C(c2cc3ccccc3o2)c2cc3ccccc3o2)c1)c1ccc2ccccc2c1`: inhibition was half-maximal at 7.73 µM (IC50).
`Cc1cc2c(cc1C)[n+](CC(=O)c1ccc(-c3ccccc3)cc1)cn2CC=C(c1cc2ccccc2o1)c1cc2ccccc2o1` gave an IC50 of 6.93 µM.
In turn, `Cc1cc2c(cc1C)[n+](CC(=O)c1ccc3ccccc3c1)cn2CC=C(c1cc2ccccc2o1)c1cc2ccccc2o1` showed an IC50 of 3.14 µM.
With `Cc1cc2c(cc1C)[n+](CC(=O)c1ccccc1)cn2CC=C(c1cc2ccccc2o1)c1cc2ccccc2o1`, the IC50 was found to be 4.33 µM.
In turn, `O=C(C[n+]1cn(CC=C(c2cc3ccccc3o2)c2cc3ccccc3o2)c2ccccc21)c1ccc(-c2ccccc2)cc1` displayed an IC50 of 5.33 µM.

Another assay deals with SMMC-7721. Put plainly: Antiproliferative activity against human SMMC7721 by MTS assay. The format is functional, cell-based.
As for `Cc1n(CC=C(c2cc3ccccc3o2)c2cc3ccccc3o2)c2ccccc2[n+]1CC(=O)c1ccc2ccccc2c1`, the IC50 was found to be 1.51 µM.
Take `Cc1n(CC=C(c2cc3ccccc3o2)c2cc3ccccc3o2)c2ccccc2[n+]1CC(=O)c1ccc(Br)cc1`: the IC50 came out at 6.84 µM.
As for `Cc1n(CC=C(c2cc3ccccc3o2)c2cc3ccccc3o2)c2ccccc2[n+]1CC(=O)c1ccc(-c2ccccc2)cc1`, it took 1.67 µM to reach half-maximal inhibition (IC50).
`COc1ccc(C(=O)C[n+]2c(C)n(CC=C(c3cc4ccccc4o3)c3cc4ccccc4o3)c3ccccc32)cc1` returned an IC50 of 1.38 µM.
Consider `Cc1cc2c(cc1C)[n+](CC(=O)c1ccc(Br)cc1)cn2CC=C(c1cc2ccccc2o1)c1cc2ccccc2o1`, for which 7.81 µM corresponded to half-maximal inhibition (IC50).
On the same count and under the same terms, the figure for `COc1ccc(C(=O)C[n+]2cn(CC=C(c3cc4ccccc4o3)c3cc4ccccc4o3)c3ccccc32)cc1` is 1.53 µM; for `O=C(C[n+]1ccn(CC=C(c2cc3ccccc3o2)c2cc3ccccc3o2)c1)c1ccc(Br)cc1` it is 7.86 µM.
On to `O=C(C[n+]1ccn(CC=C(c2cc3ccccc3o2)c2cc3ccccc3o2)c1)c1ccc2ccccc2c1`, for which the 50% inhibitory concentration (IC50) was > 20 µM.
The compound `Cc1cc2c(cc1C)[n+](CC(=O)c1ccc(-c3ccccc3)cc1)cn2CC=C(c1cc2ccccc2o1)c1cc2ccccc2o1` had an IC50 of 9.04 µM.
With `Cc1cc2c(cc1C)[n+](CC(=O)c1ccc3ccccc3c1)cn2CC=C(c1cc2ccccc2o1)c1cc2ccccc2o1`, the IC50 stood at 5.9 µM.
`Cc1cc2c(cc1C)[n+](CC(=O)c1ccccc1)cn2CC=C(c1cc2ccccc2o1)c1cc2ccccc2o1`: the IC50 was 6.38 µM.
For the compound `O=C(C[n+]1cn(CC=C(c2cc3ccccc3o2)c2cc3ccccc3o2)c2ccccc21)c1ccc(-c2ccccc2)cc1`, inhibition was half-maximal at 6.69 µM (IC50).

The subject of a further assay is A549. The assay is described as follows: Antiproliferative activity against human […] cells by MTS assay. Format: functional, cell-based.
Take `Cc1n(CC=C(c2cc3ccccc3o2)c2cc3ccccc3o2)c2ccccc2[n+]1CC(=O)c1ccc2ccccc2c1`: the IC50 came to 1.58 µM.
Still for that read-out and setting: the figure for `Cc1n(CC=C(c2cc3ccccc3o2)c2cc3ccccc3o2)c2ccccc2[n+]1CC(=O)c1ccc(Br)cc1` is 7.43 µM.
As for `Cc1n(CC=C(c2cc3ccccc3o2)c2cc3ccccc3o2)c2ccccc2[n+]1CC(=O)c1ccc(-c2ccccc2)cc1`, 1.96 µM corresponded to half-maximal inhibition (IC50).
On to `COc1ccc(C(=O)C[n+]2c(C)n(CC=C(c3cc4ccccc4o3)c3cc4ccccc4o3)c3ccccc32)cc1`, for which the 50% inhibitory concentration (IC50) worked out at 1.47 µM.
Turning to `Cc1cc2c(cc1C)[n+](CC(=O)c1ccc(Br)cc1)cn2CC=C(c1cc2ccccc2o1)c1cc2ccccc2o1`, the half-inhibitory concentration (IC50) is 7.42 µM.
In the case of `COc1ccc(C(=O)C[n+]2cn(CC=C(c3cc4ccccc4o3)c3cc4ccccc4o3)c3ccccc32)cc1`, 2.32 µM corresponded to half-maximal inhibition (IC50).
`O=C(C[n+]1ccn(CC=C(c2cc3ccccc3o2)c2cc3ccccc3o2)c1)c1ccc(Br)cc1`: the half-inhibitory concentration (IC50) turned out to be 8.47 µM.
On to `O=C(C[n+]1ccn(CC=C(c2cc3ccccc3o2)c2cc3ccccc3o2)c1)c1ccc2ccccc2c1`, for which the IC50 was > 20 µM.
The same measure, in the same setting: in the case of `Cc1cc2c(cc1C)[n+](CC(=O)c1ccc(-c3ccccc3)cc1)cn2CC=C(c1cc2ccccc2o1)c1cc2ccccc2o1` it was 7.68 µM.
Turning to `Cc1cc2c(cc1C)[n+](CC(=O)c1ccc3ccccc3c1)cn2CC=C(c1cc2ccccc2o1)c1cc2ccccc2o1`, the 50% inhibitory concentration (IC50) came to 5.34 µM.
On to `Cc1cc2c(cc1C)[n+](CC(=O)c1ccccc1)cn2CC=C(c1cc2ccccc2o1)c1cc2ccccc2o1`, for which it took 7.08 µM to reach half-maximal inhibition (IC50).
The same measure, in the same setting: the figure for `O=C(C[n+]1cn(CC=C(c2cc3ccccc3o2)c2cc3ccccc3o2)c2ccccc21)c1ccc(-c2ccccc2)cc1` is 7.23 µM.

For the next assay, the system named is MCF7. The assay is described as follows: Antiproliferative activity against human MCF7 cells by MTS assay. Format: functional, cell-based.
Consider `Cc1n(CC=C(c2cc3ccccc3o2)c2cc3ccccc3o2)c2ccccc2[n+]1CC(=O)c1ccc2ccccc2c1`, for which the IC50 is 0.97 µM.
The compound `Cc1n(CC=C(c2cc3ccccc3o2)c2cc3ccccc3o2)c2ccccc2[n+]1CC(=O)c1ccc(Br)cc1` yielded an IC50 of 1.72 µM.
On the same count and under the same terms, the figure for `Cc1n(CC=C(c2cc3ccccc3o2)c2cc3ccccc3o2)c2ccccc2[n+]1CC(=O)c1ccc(-c2ccccc2)cc1` is 1.23 µM; for `COc1ccc(C(=O)C[n+]2c(C)n(CC=C(c3cc4ccccc4o3)c3cc4ccccc4o3)c3ccccc32)cc1` it is 0.64 µM.
For `Cc1cc2c(cc1C)[n+](CC(=O)c1ccc(Br)cc1)cn2CC=C(c1cc2ccccc2o1)c1cc2ccccc2o1`, half-maximal inhibition (IC50) required 7.05 µM.
Compound `COc1ccc(C(=O)C[n+]2cn(CC=C(c3cc4ccccc4o3)c3cc4ccccc4o3)c3ccccc32)cc1` showed a half-maximal inhibitory concentration (IC50) of 1.02 µM.
For the compound `O=C(C[n+]1ccn(CC=C(c2cc3ccccc3o2)c2cc3ccccc3o2)c1)c1ccc(Br)cc1`, the IC50 is 7.29 µM.
For `O=C(C[n+]1ccn(CC=C(c2cc3ccccc3o2)c2cc3ccccc3o2)c1)c1ccc2ccccc2c1`, half-maximal inhibition (IC50) was put at 7.83 µM.
For the compound `Cc1cc2c(cc1C)[n+](CC(=O)c1ccc(-c3ccccc3)cc1)cn2CC=C(c1cc2ccccc2o1)c1cc2ccccc2o1`, the IC50 was found to be 8.67 µM.
As to `Cc1cc2c(cc1C)[n+](CC(=O)c1ccc3ccccc3c1)cn2CC=C(c1cc2ccccc2o1)c1cc2ccccc2o1`, the half-inhibitory concentration (IC50) amounted to 2.38 µM.
`Cc1cc2c(cc1C)[n+](CC(=O)c1ccccc1)cn2CC=C(c1cc2ccccc2o1)c1cc2ccccc2o1` showed an IC50 of 3.42 µM.
Same read-out and setting: the figure for `O=C(C[n+]1cn(CC=C(c2cc3ccccc3o2)c2cc3ccccc3o2)c2ccccc21)c1ccc(-c2ccccc2)cc1` is 2.42 µM.

The test system of another assay is SW480. The assay is described as follows: Antiproliferative activity against human SW480 cells by MTS assay. Format: functional, cell-based.
Consider `Cc1n(CC=C(c2cc3ccccc3o2)c2cc3ccccc3o2)c2ccccc2[n+]1CC(=O)c1ccc2ccccc2c1`, for which inhibition was half-maximal at 1.54 µM (IC50).
`Cc1n(CC=C(c2cc3ccccc3o2)c2cc3ccccc3o2)c2ccccc2[n+]1CC(=O)c1ccc(Br)cc1` had an IC50 of 0.8 µM.
Compound `Cc1n(CC=C(c2cc3ccccc3o2)c2cc3ccccc3o2)c2ccccc2[n+]1CC(=O)c1ccc(-c2ccccc2)cc1` registered a half-maximal inhibitory concentration (IC50) of 1.48 µM.
For `COc1ccc(C(=O)C[n+]2c(C)n(CC=C(c3cc4ccccc4o3)c3cc4ccccc4o3)c3ccccc32)cc1`, the half-maximal inhibitory concentration (IC50) turned out to be 0.88 µM.
Consider `Cc1cc2c(cc1C)[n+](CC(=O)c1ccc(Br)cc1)cn2CC=C(c1cc2ccccc2o1)c1cc2ccccc2o1`, for which the IC50 came out at 7.93 µM.
The same measure, in the same setting: the figure for `COc1ccc(C(=O)C[n+]2cn(CC=C(c3cc4ccccc4o3)c3cc4ccccc4o3)c3ccccc32)cc1` is 1.47 µM; for `O=C(C[n+]1ccn(CC=C(c2cc3ccccc3o2)c2cc3ccccc3o2)c1)c1ccc(Br)cc1` it is 6.17 µM; for `O=C(C[n+]1ccn(CC=C(c2cc3ccccc3o2)c2cc3ccccc3o2)c1)c1ccc2ccccc2c1` it is 6.97 µM.
`Cc1cc2c(cc1C)[n+](CC(=O)c1ccc(-c3ccccc3)cc1)cn2CC=C(c1cc2ccccc2o1)c1cc2ccccc2o1`: the IC50 was 6.42 µM.
In turn, `Cc1cc2c(cc1C)[n+](CC(=O)c1ccc3ccccc3c1)cn2CC=C(c1cc2ccccc2o1)c1cc2ccccc2o1` returned a concentration for half-maximal inhibition (IC50) of 2.36 µM.
With `Cc1cc2c(cc1C)[n+](CC(=O)c1ccccc1)cn2CC=C(c1cc2ccccc2o1)c1cc2ccccc2o1`, the IC50 is 4.3 µM.
Take `O=C(C[n+]1cn(CC=C(c2cc3ccccc3o2)c2cc3ccccc3o2)c2ccccc21)c1ccc(-c2ccccc2)cc1`: inhibition was half-maximal at 5.94 µM (IC50).
